In article PMC10449621, “Engineering cellular communication between light-activated synthetic cells and bacteria” (Nature Chemical Biology, 2023):
“And” between values parts separate entries of the source, which are not always exact repeats. Equal values may be shown once.

System: BjaRWT (B0033|ATG) receiver cells
Assay: BjaR receiver cell AHSL dose-response (gfp reporter, plate reader)
Assay type: cell-based, E. coli XL10-Gold
Conditions: sheet 3e; for Normalised fluorescence / GFP: Expt1-3; for GFP: raw fluorescence ex 488/em 510 nm
Source text: These findings are consistent with the predicted translation initiation rates of the respective sequences—translation from the BBa_B0033 RBS provides 1% of protein yield compared to the BBa_B0034 RBS, just as an CTG start codon provides 1% of the protein yield compared to an ATG start codon[30],[31]. This also offers support as to why the ON-state gfp expression level increased in variants with a tighter OFF-state; more cellular resources were available for GFP synthesis when comparatively fewer were allocated to BjaR synthesis. To elucidate the impact of the S107R variant on gene circuit performance, we introduced the S107R variant alone back into the bjaRWT gene, in the context of the BBa_B0033 RBS background.
In addition to quantifying how these BjaR receiver cells responded to their branched, cognate ligand, we also sought to determine whether the BjaR receiver cells could be activated by structurally dissimilar AHSLs involved in the LuxI/R, EsaI/R, LasI/R and RhlI/R QS systems previously used in synthetic cell communication[5],[7],[8]. To this end, we measured the fluorescence of BjaR receiver cells grown in the presence of their activators, 3OC6-HSL, 3OC12-HSL and C4-HSL, respectively (Supplementary Fig. 13a).
The BjaR reporter plasmids were retransformed into E. coli XL10-Gold cells for each experiment. A single colony was used to inoculate 5 ml LB + Amp media and incubated at 37 °C, 225 r.p.m. overnight. Overnight cultures were diluted 1/250 or 1/500 in 5 ml M9 minimal media + Amp and incubated at 37 °C, 225 r.p.m. for 3 h and 45 min (until OD600 = ~0.075). Cultures were diluted down to OD600 = 0.05 with M9 minimal media + Amp, and 200 µl was added to wells of a 96-well plate containing 1 µl IV-HSL dissolved in DMSO or 1 µl BjaI CFPS reactions (IV-HSL concentrations obtained from serial dilution from 63.2 µM to 632 pM; final DMSO concentration = 0.5%). Cells were incubated at 37 °C, 800 r.p.m., in a thermomixer with a heated lid for 4 h. Fluorescence and OD600 were measured in a Tecan M1000 infinite plate reader (excitation, 488 nm; emission, 510 nm; bandwidth, 5 nm; gain, 101 and z position, 21,311 µm). The dose–response curves were fitted to the function indicated by Eq. (1), where a = maximal fluorescence output, b = basal fluorescence output, X = concentration of AHSL, GFP = fluorescence at the given condition, EC50 = AHSL at 50% maximal fluorescence output and h = hill coefficient. EC50 and h were derived using the nonlinear regression model based on Eq. (1), in MATLAB. A summary of the dose–response data is available in Supplementary Table 1.1 GFP=b+a−b/1+10^logEC50−X×h

CCCC(=O)N[C@H]1CCOC1=O [C4HSL]
Mean normalised fluorescence (Log([ASHL]) -6.5): 89755.1
Normalised fluorescence (Log([ASHL]) -6.5): 87597.7 and 86111.2 and 95556.3
GFP (Log([ASHL]) -6.5): 21193 and 21411 and 30615
Mean normalised fluorescence (Log([ASHL]) -7): 24851.4
Normalised fluorescence (Log([ASHL]) -7): 25795.6 and 21987 and 26771.5
GFP (Log([ASHL]) -7): 6504 and 5697 and 8639
Mean normalised fluorescence (Log([ASHL]) -7.5): 5633.53
Normalised fluorescence (Log([ASHL]) -7.5): 5943.36 and 4742.76 and 6214.47
GFP (Log([ASHL]) -7.5): 1544 and 1323 and 2047
Mean normalised fluorescence (Log([ASHL]) -8): 2030.88
Normalised fluorescence (Log([ASHL]) -8): 2169.85 and 1704.52 and 2218.28
GFP (Log([ASHL]) -8): 628 and 544 and 810
Mean normalised fluorescence (Log([ASHL]) -8.5): 1297.09
Normalised fluorescence (Log([ASHL]) -8.5): 1166.04 and 1369.65 and 1355.57
GFP (Log([ASHL]) -8.5): 416 and 558 and 438
Mean normalised fluorescence (Log([ASHL]) -9): 1170.67
Normalised fluorescence (Log([ASHL]) -9): 1077.7 and 1245.14 and 1189.19
GFP (Log([ASHL]) -9): 387 and 507 and 403
Mean normalised fluorescence (Log([ASHL]) -9.5): 1170.76
Normalised fluorescence (Log([ASHL]) -9.5): 1086.47 and 1200.78 and 1225.03
GFP (Log([ASHL]) -9.5): 387 and 492 and 393
Mean normalised fluorescence (Log([ASHL]) -10): 1105.3
Normalised fluorescence (Log([ASHL]) -10): 1065.28 and 1106.75 and 1143.86
GFP (Log([ASHL]) -10): 377 and 461
Mean normalised fluorescence (Log([ASHL]) -10.5): 1140.47
Normalised fluorescence (Log([ASHL]) -10.5): 1078 and 1145.04 and 1198.38
GFP (Log([ASHL]) -10.5): 375 and 468 and 384
Mean normalised fluorescence (Log([ASHL]) -11): 1127.16
Normalised fluorescence (Log([ASHL]) -11): 1056.83 and 1148.2 and 1176.47
GFP (Log([ASHL]) -11): 372 and 467 and 379
Mean normalised fluorescence (Log([ASHL]) -11.5): 1165.29
Normalised fluorescence (Log([ASHL]) -11.5): 1094.25 and 1223.38 and 1178.24
GFP (Log([ASHL]) -11.5): 376 and 387 and 476

CCCCCC(=O)N[C@H]1CCOC1=O [C6HSL]
Mean normalised fluorescence (Log([ASHL]) -6.5): 1368.65
Normalised fluorescence (Log([ASHL]) -6.5): 1655.84 and 1049.46 and 1400.63
GFP (Log([ASHL]) -6.5): 525 and 399 and 567
Mean normalised fluorescence (Log([ASHL]) -7): 1069.59
Normalised fluorescence (Log([ASHL]) -7): 1188.52 and 915.717 and 1104.54
GFP (Log([ASHL]) -7): 407 and 365 and 478
Mean normalised fluorescence (Log([ASHL]) -7.5): 1072.17
Normalised fluorescence (Log([ASHL]) -7.5): 1112.94 and 960.351 and 1143.21
GFP (Log([ASHL]) -7.5): 387 and 361 and 491
Mean normalised fluorescence (Log([ASHL]) -8): 1019.8
Normalised fluorescence (Log([ASHL]) -8): 1032.26 and 951.298 and 1075.83
GFP (Log([ASHL]) -8): 373 and 371 and 472
Mean normalised fluorescence (Log([ASHL]) -8.5): 1002.73
Normalised fluorescence (Log([ASHL]) -8.5): 909.599 and 1094.09 and 1004.49
GFP (Log([ASHL]) -8.5): 364 and 473 and 363
Mean normalised fluorescence (Log([ASHL]) -9): 1027.01
Normalised fluorescence (Log([ASHL]) -9): 916.088 and 1080.14 and 1084.79
GFP (Log([ASHL]) -9): 364 and 464 and 378
Mean normalised fluorescence (Log([ASHL]) -9.5): 1017.95
Normalised fluorescence (Log([ASHL]) -9.5): 932.091 and 1057.66 and 1064.1
GFP (Log([ASHL]) -9.5): 365 and 455 and 371
Mean normalised fluorescence (Log([ASHL]) -10): 1072.17
Normalised fluorescence (Log([ASHL]) -10): 960.615 and 1126.04 and 1129.87
GFP (Log([ASHL]) -10): 370 and 475 and 378
Mean normalised fluorescence (Log([ASHL]) -10.5): 1041.96
Normalised fluorescence (Log([ASHL]) -10.5): 969.437 and 1060.85 and 1095.6
GFP (Log([ASHL]) -10.5): 369 and 456 and 376
Mean normalised fluorescence (Log([ASHL]) -11): 1037.02
Normalised fluorescence (Log([ASHL]) -11): 937.562 and 1077.9 and 1095.59
GFP (Log([ASHL]) -11): 358 and 462 and 368
Mean normalised fluorescence (Log([ASHL]) -11.5): 1058.71
Normalised fluorescence (Log([ASHL]) -11.5): 974.837 and 1085.17 and 1116.13
GFP (Log([ASHL]) -11.5): 366 and 368 and 469

CCCCCCCCCCCC(=O)N[C@H]1CCOC1=O [C12-HSL]
Mean normalised fluorescence (Log([ASHL]) -6.5): 3660.47
Mean normalised fluorescence (Log([ASHL]) -7): 1319.41
Normalised fluorescence (Log([ASHL]) -7): 1877.08 and 986.388 and 1094.76
GFP (Log([ASHL]) -7): 569 and 370 and 480
Mean normalised fluorescence (Log([ASHL]) -7.5): 1262.26
Normalised fluorescence (Log([ASHL]) -7.5): 1653.64 and 971.756 and 1161.39
GFP (Log([ASHL]) -7.5): 519 and 366 and 490
Mean normalised fluorescence (Log([ASHL]) -8): 1041.4
Normalised fluorescence (Log([ASHL]) -8): 1139.61 and 918.045 and 1066.55
GFP (Log([ASHL]) -8): 388 and 367 and 474
Mean normalised fluorescence (Log([ASHL]) -8.5): 1040.51
Normalised fluorescence (Log([ASHL]) -8.5): 943.135 and 1084.52 and 1093.88
GFP (Log([ASHL]) -8.5): 358 and 472 and 378
Mean normalised fluorescence (Log([ASHL]) -9): 1031.28
Normalised fluorescence (Log([ASHL]) -9): 984.805 and 1073.68 and 1035.35
GFP (Log([ASHL]) -9): 376 and 464 and 363
Mean normalised fluorescence (Log([ASHL]) -9.5): 1017.68
Normalised fluorescence (Log([ASHL]) -9.5): 918.306 and 1057.93 and 1076.79
GFP (Log([ASHL]) -9.5): 351 and 459 and 368
Mean normalised fluorescence (Log([ASHL]) -10): 1062.17
Normalised fluorescence (Log([ASHL]) -10): 938.8 and 1069.72 and 1178
GFP (Log([ASHL]) -10): 357 and 459 and 389
Mean normalised fluorescence (Log([ASHL]) -10.5): 1063.23
Normalised fluorescence (Log([ASHL]) -10.5): 1055.63 and 1095.89 and 1038.16
GFP (Log([ASHL]) -10.5): 379 and 459 and 370
Mean normalised fluorescence (Log([ASHL]) -11): 1104.13
Normalised fluorescence (Log([ASHL]) -11): 961.19 and 1115.34 and 1235.86
GFP (Log([ASHL]) -11): 359 and 475 and 401
Mean normalised fluorescence (Log([ASHL]) -11.5): 1958.08
GFP (Log([ASHL]) -11.5): 637 and 706 and 473
